TGI data for 22 compounds are collected here from PubChem BioAssay (NCI).

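1) Cells in 96-well plates. 2) Compound, 48 h, 5 concentrations. 3) Linear interpolation between surrounding doses. 4) Unreached endpoint = highest concentration. TGI: total growth inhibition.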 Where a SMILES comes first, the peptide text is derived from it. Peptide text beside a SMILES is read from it. [ ]: non-standard residue; d: D form. The star is where a group is joined. * marks the point of attachment. Phe(4-NO2) = N[CH](Cc1ccc([N+](=O)[O-])cc1)C(=O)O; Boc = CC(C)(C)OC(=O)*; OtBu = CC(C)(C)O* Some results are limits rather than exact numbers.

Test systems include SK-MEL-28 melanoma; MDA-MB-231 breast; HCT-116 colon; NCI-H23 lung; BT-549 breast; ACHN renal; LOX IMVI melanoma; HT29 colon; RXF 393 renal.
Holding throughout (assay): NCI-60 cell line screen, 48 h

Consider `CCC1(O)CN(CCOC)[C@H]2C[C@@H]1C(=O)c1[nH]c3ccccc3c12` (stereo not given in full), for which the TGI in the experiment on SK-MEL-28 melanoma, in the experiment with MDA-MB-231 breast, with HCT-116 colon, in the experiment on NCI-H23 lung, with BT-549 breast and in the experiment on ACHN renal was > 100 µM each time. Moreover, the TGI with LOX IMVI melanoma, in the experiment with HT29 colon and with RXF 393 renal was > 100 µM throughout.
In the case of `Cc1nc(C(N)=S)sc1C(=O)CC(=O)C(=O)Nc1cccc(Cl)c1C`, the TGI with SK-MEL-28 melanoma, in the experiment on MDA-MB-231 breast, in the experiment on HCT-116 colon, in the experiment with NCI-H23 lung, in the experiment with BT-549 breast and in the experiment on ACHN renal was > 100 µM throughout. The TGI with LOX IMVI melanoma, in the experiment on HT29 colon and in the experiment on RXF 393 renal was > 100 µM in each case.
In the case of `O=C(NCCCCl)c1c(O)c2ccccc2[nH]c1=O`, the TGI with SK-MEL-28 melanoma, in the experiment with MDA-MB-231 breast, with HCT-116 colon, with NCI-H23 lung, with BT-549 breast and in the experiment with ACHN renal was > 100 µM in each case. For the same compound, the values for the TGI in the experiment with LOX IMVI melanoma, with HT29 colon and in the experiment on RXF 393 renal were > 100 µM, > 100 µM and > 71.5 µM, respectively.
Take `Clc1ncc(C(Cl)(Cl)Cl)nc1-c1ccccc1`: the TGI in the experiment on SK-MEL-28 melanoma turned out to be 60.6 µM; with MDA-MB-231 breast, 3.86 µM; with HCT-116 colon, 3.52 µM; in the experiment with NCI-H23 lung, 6.07 µM; with BT-549 breast, 8.81 µM; in the experiment with ACHN renal, 3.19 µM. Besides, the TGI came out at 15.4 µM in the experiment with LOX IMVI melanoma, 3.65 µM in the experiment with HT29 colon and 3.3 µM with RXF 393 renal.
Regarding `CSCCC(NC(=O)C(CC(C)C)NC(=O)CNC(=O)OC(C)(C)C)C(=O)N(C)C` (stereo not drawn) (Boc-Gly-Leu-Met-NMe2; configuration not given here), the TGI with SK-MEL-28 melanoma, in the experiment with MDA-MB-231 breast, with HCT-116 colon, in the experiment on NCI-H23 lung, in the experiment on BT-549 breast and in the experiment on ACHN renal was > 100 µM in each case. The TGI with LOX IMVI melanoma, with HT29 colon and in the experiment on RXF 393 renal was > 100 µM each time.
`COC1=CC2(C=CC1=O)CCN=c1c(O)c3c(c(O)c12)=NC=N3` (stereo not given): the TGI in the experiment with SK-MEL-28 melanoma, in the experiment with MDA-MB-231 breast, with HCT-116 colon, in the experiment on NCI-H23 lung, in the experiment on BT-549 breast and in the experiment with ACHN renal was > 100 µM in each case. The TGI in the experiment on LOX IMVI melanoma, in the experiment with HT29 colon and in the experiment on RXF 393 renal was > 100 µM each time.
As for `COC(=O)C(Cc1ccc([N+](=O)[O-])cc1)NC(=O)C(CC(=O)OC(C)(C)C)NC(=O)OC(C)(C)C` (stereo not given) (Boc-Asp(OtBu)-[Phe(4-NO2)]-OMe; configuration not given here), the TGI in the experiment on SK-MEL-28 melanoma is 57.4 µM; in the experiment with MDA-MB-231 breast, 68.4 µM; in the experiment with HCT-116 colon, > 100 µM; with NCI-H23 lung, > 100 µM; in the experiment on BT-549 breast it was > 100 µM; in the experiment with ACHN renal it was > 100 µM. Besides, the TGI was 49 µM in the experiment on LOX IMVI melanoma, > 100 µM in the experiment with HT29 colon and > 100 µM with RXF 393 renal.
Consider `COC(=O)CNC(=O)/C=C/[C@H](O[Si](C)(C)C(C)(C)C)[C@H](/C=C/C(=O)NCC(=O)OC)O[Si](C)(C)C(C)(C)C`, for which the TGI in the experiment on SK-MEL-28 melanoma, in the experiment with MDA-MB-231 breast, in the experiment with HCT-116 colon, in the experiment on NCI-H23 lung, in the experiment on BT-549 breast and in the experiment on ACHN renal was > 25 µM each time. The TGI with LOX IMVI melanoma, in the experiment on HT29 colon and in the experiment on RXF 393 renal was > 25 µM in each case.
As to `C/C(=N\O)c1ccc(Nc2c3ccccc3nc3occc23)cc1`, the TGI in the experiment on SK-MEL-28 melanoma was > 18.5 µM; in the experiment on MDA-MB-231 breast, > 39.3 µM; in the experiment on HCT-116 colon, 2.52 µM; in the experiment with NCI-H23 lung, > 10.8 µM; in the experiment with BT-549 breast it was > 12.4 µM; with ACHN renal, > 50 µM. The TGI in the experiment on LOX IMVI melanoma was > 50 µM; in the experiment on HT29 colon, 0.72 µM; in the experiment on RXF 393 renal it was 0.614 µM.
On to `CSC1(SC)CCCCCCCCCCC1`, for which the TGI with SK-MEL-28 melanoma is > 100 µM; in the experiment on MDA-MB-231 breast, > 100 µM; with HCT-116 colon, 31.4 µM; in the experiment on NCI-H23 lung, > 100 µM; in the experiment with BT-549 breast it was > 100 µM; in the experiment with ACHN renal it was > 100 µM. Besides, the TGI in the experiment with LOX IMVI melanoma is 36.4 µM; with HT29 colon it was > 100 µM; in the experiment on RXF 393 renal, > 100 µM.
On to `CCOP(=O)(OCC)C(F)(F)CC1CCCCC1`, for which the TGI with SK-MEL-28 melanoma, in the experiment on MDA-MB-231 breast, in the experiment with HCT-116 colon, in the experiment on NCI-H23 lung, with BT-549 breast and in the experiment with ACHN renal was > 10 µM throughout. In addition, the TGI in the experiment with LOX IMVI melanoma, in the experiment with HT29 colon and in the experiment with RXF 393 renal was > 10 µM throughout.
Regarding `COc1ccc(-c2c(C(C)=O)c(C)n(C3OC(CO)C(O)C(O)C3O)c(=S)c2C#N)cc1` (stereo not given), the TGI in the experiment on SK-MEL-28 melanoma, in the experiment with MDA-MB-231 breast, with HCT-116 colon, in the experiment with NCI-H23 lung, with BT-549 breast and with ACHN renal was > 100 µM in each case. Also, the TGI in the experiment on LOX IMVI melanoma, in the experiment with HT29 colon and in the experiment on RXF 393 renal was > 100 µM throughout.
`N#Cc1nnc2c3c(-c4ccc(Cl)cc4)c(C#N)c(=O)[nH]c3nn2c1N`: the TGI turned out to be 44.5 µM in the experiment on SK-MEL-28 melanoma; 43.5 µM in the experiment with MDA-MB-231 breast; 15.9 µM with HCT-116 colon; 24 µM in the experiment with NCI-H23 lung; 10.3 µM in the experiment on BT-549 breast; 21.9 µM in the experiment with ACHN renal. Besides, the TGI worked out at 8.01 µM with LOX IMVI melanoma, 21.2 µM in the experiment on HT29 colon and 14.9 µM with RXF 393 renal.
On to `CC(=O)c1nccc2c1c(C)nc1ccccc12`, for which the TGI in the experiment with SK-MEL-28 melanoma, with MDA-MB-231 breast, in the experiment with HCT-116 colon, with NCI-H23 lung, in the experiment on BT-549 breast and in the experiment on ACHN renal was > 100 µM throughout. The TGI in the experiment on LOX IMVI melanoma, in the experiment with HT29 colon and with RXF 393 renal was > 100 µM throughout.
Take `CCOC(=O)Cc1nc2c(=O)[nH]cnc2n1C1OC(COC(C)=O)C(OC(C)=O)C1OC(C)=O` (stereo not given): the TGI in the experiment with SK-MEL-28 melanoma, with MDA-MB-231 breast, in the experiment on HCT-116 colon, in the experiment on NCI-H23 lung, with BT-549 breast and in the experiment on ACHN renal was > 100 µM throughout. Moreover, the TGI in the experiment with LOX IMVI melanoma, with HT29 colon and with RXF 393 renal was > 100 µM each time.
`O=C(Nc1ccccc1)N1N=C(c2ccccc2)C1c1ccccc1` (stereo not given): the TGI with SK-MEL-28 melanoma was > 100 µM; with MDA-MB-231 breast it was > 100 µM; in the experiment on HCT-116 colon it was 44.8 µM; in the experiment on NCI-H23 lung, 72.1 µM; with BT-549 breast, 64.4 µM; with ACHN renal, 65.8 µM. The TGI in the experiment on LOX IMVI melanoma was determined as 89.6 µM; in the experiment with HT29 colon, 39.8 µM; in the experiment with RXF 393 renal, 44.5 µM.
As for `COc1ccc(C[C@H]2COC(=O)[C@@H]2Cc2cc(OC)c(OC)c(OC)c2)cc1OC`, the TGI with SK-MEL-28 melanoma, in the experiment on MDA-MB-231 breast, with HCT-116 colon, in the experiment with NCI-H23 lung, with BT-549 breast and in the experiment on ACHN renal was > 100 µM throughout. Further, the TGI in the experiment on LOX IMVI melanoma, with HT29 colon and in the experiment with RXF 393 renal was > 100 µM throughout.
As for `COC1(OC)/C(=C(\N)C=O)NC(C)(C)N1O`, the TGI in the experiment on SK-MEL-28 melanoma, in the experiment with MDA-MB-231 breast, with HCT-116 colon, in the experiment on NCI-H23 lung, in the experiment on BT-549 breast and with ACHN renal was > 100 µM throughout. Besides, the TGI with LOX IMVI melanoma, with HT29 colon and in the experiment on RXF 393 renal was > 100 µM in each case.
Regarding `CN1C(=O)[C@@]2(C=CC3(CC2)OCCO3)c2ccccc21`, the TGI in the experiment with SK-MEL-28 melanoma, in the experiment on MDA-MB-231 breast, in the experiment on HCT-116 colon, in the experiment with NCI-H23 lung, in the experiment with BT-549 breast and in the experiment on ACHN renal was > 50 µM throughout. Moreover, the TGI with LOX IMVI melanoma, in the experiment on HT29 colon and with RXF 393 renal was > 50 µM in each case.
For `CCOc1ccc(NC(=S)/N=C/C(C(=O)Nc2ccccc2C)=C(\C)O)cc1`, the TGI in the experiment on MDA-MB-231 breast, in the experiment on HCT-116 colon, with NCI-H23 lung, with BT-549 breast, with ACHN renal and with LOX IMVI melanoma was > 100 µM each time. The TGI with HT29 colon and in the experiment with RXF 393 renal was > 100 µM each time.
As to `BrCC[P+](c1ccccc1)(c1ccccc1)c1ccccc1`, the TGI is 19.5 µM with SK-MEL-28 melanoma; 34.8 µM in the experiment on MDA-MB-231 breast; 8.38 µM in the experiment with HCT-116 colon; 39.6 µM in the experiment with BT-549 breast; > 100 µM with ACHN renal; 17.6 µM with LOX IMVI melanoma. Also, the TGI was found to be 30.2 µM with HT29 colon and 8.02 µM in the experiment on RXF 393 renal.
Turning to `c1ccc(COc2ncccc2C2SCCCS2)cc1`, the TGI in the experiment with SK-MEL-28 melanoma, with MDA-MB-231 breast, in the experiment with HCT-116 colon, with NCI-H23 lung, with BT-549 breast and in the experiment on ACHN renal was > 100 µM throughout. The TGI in the experiment on LOX IMVI melanoma and with RXF 393 renal was > 100 µM throughout.
